Literature values in patent US8895055B2, “Telodendrimer nanodiscs without apolipoprotein” (The Regents of the University of California, priority 2011, dated 2014).

With `C[C@@H]1[C@H](O)[C@@H](C)/C=C/C=C/C=C/C=C/C=C/C=C/C=C/[C@H](O[C@@H]2O[C@H](C)[C@@H](O)[C@H](N)[C@@H]2O)C[C@@H]2O[C@](O)(C[C@@H](O)C[C@@H](O)[C@H](O)CC[C@@H](O)C[C@@H](O)CC(=O)O[C@H]1C)C[C@H](O)[C@H]2C(=O)O` [Amphotericin B] as the molecule, how does the solubility in water read?
Its solubility in water is “poorly soluble in water”.
